The source of these data is ChEMBL document CHEMBL5230102, “Bicyclic polyprenylated acylphloroglucinols and their derivatives: structural modification, structure-activity relationship, biological activity and mechanism of action” (Eur J Med Chem, 2020).

Converted amounts (≈) assume the structure as drawn.

For assay [1], the system named is Staphylococcus aureus. Briefly: Antibacterial activity against methicillin resistant Staphylococcus aureus USA300. It counts as functional.
The subject of the next assay is HCT-116. Briefly: Cytotoxicity against human HCT-116 cells assessed as inhibition of cell growth. The format is functional, cell-based.
The test system of another assay is HeLa. The assay can be described thus: Cytotoxicity against human HeLa cells assessed as inhibition of cell growth. It counts as functional, cell-based.
Another assay relates to SGC-7901. The assay can be described thus: Cytotoxicity against human SGC-7901 cells assessed as inhibition of cell growth. The format is functional, cell-based.
The subject of a further assay is Plasmodium falciparum. The assay can be described thus: Antimalarial activity against Plasmodium falciparum. The format is functional, organism-based.
For assay [2], the system named is Staphylococcus aureus. Briefly: Antibacterial activity against Staphylococcus aureus. The format is functional, organism-based.

For `CC(=O)C1=C(O)[C@@]2(CC=C(C)C)C[C@@H](CC=C(C)C)C(C)(C)[C@@](CC=C(C)C)(C1=O)C2=O`, the MIC (in general, the lowest concentration found to suppress growth) with Staphylococcus aureus [1] was 1 µg/mL (≈ 2.27 µM).
The same measure, in the same setting: the same measure for `CC(C)=CCC(=O)C1=C(O)[C@@]2(Cc3ccccc3)C[C@@H](CC=C(C)C)C(C)(C)[C@@](CC=C(C)C)(C1=O)C2=O`: 2 µg/mL (≈ 3.87 µM).
For `CC(C)=CC[C@@H]1C[C@]2(CC=C(C)C)C(=O)[C@@](CC=C(C)C)(C(=O)C(C(=O)c3ccccc3)=C2O)C1(C)C`, the values for the IC50 in the assay with HCT-116, with HeLa and with SGC-7901 were 6.87 µg/mL (≈ 13.7 µM), 12 µg/mL (≈ 23.8 µM) and 12 µg/mL (≈ 23.8 µM), respectively.
Regarding `CC(C)=CCC(=O)C1=C(O)[C@@]2(C)C[C@@H](CC=C(C)C)C(C)(C)[C@@](CC=C(C)C)(C1=O)C2=O`, the MIC in the assay with Staphylococcus aureus [1] is 4 µg/mL (≈ 9.08 µM).
Still for that read-out and setting: the same measure for `CC(C)=CC[C@@H]1C[C@@]2(Cc3ccccc3)C(=O)[C@](C)(C(=O)C(C(=O)c3ccccc3)=C2O)C1(C)C`: > 30 µg/mL.
`CC(C)=CCC/C(C)=C/C[C@@H]1C[C@]2(C/C=C(\C)CCC=C(C)C)C(=O)[C@@](CC=C(C)C)(C(=O)C(C(=O)c3ccc(O)c(O)c3)=C2O)C1(C)C`: the IC50 (usually the concentration needed to halve the response being measured) with HCT-116 stood at 4.92 µg/mL (≈ 7.33 µM); in the assay on HeLa it was 8.09 µg/mL (≈ 12.1 µM); with SGC-7901 it was 4.05 µg/mL (≈ 6.04 µM).
In the assay with Staphylococcus aureus [1], `CC(C)=CC[C@@]12C(=O)C(C(=O)c3ccccc3)=C(O)[C@@](Cc3ccccc3)(C[C@@H](Cc3ccccc3)C1(C)C)C2=O` displayed an MIC of 4 µg/mL (≈ 7.32 µM).
Regarding `CC(C)=CC[C@H]1C[C@@]2(CC=C(C)C)C(=O)c3c(oc4c(O)c(O)ccc4c3=O)[C@](CC=C(C)C)(C2=O)C1(C)C`, the figures for the IC50 in the assay with HCT-116, in the assay on HeLa and in the assay on SGC-7901 were 2.44 µg/mL (≈ 4.58 µM), 4.69 µg/mL (≈ 8.8 µM) and 4.69 µg/mL (≈ 8.8 µM), respectively.
The compound `C=CC[C@@]12C[C@@H](CC=C(C)C)C(C)(C)[C@@](CC=C)(C(=O)C(C(=O)C(C)C)=C1O)C2=O` returned an MIC in the assay on Staphylococcus aureus [1] of 2 µg/mL (≈ 4.85 µM).
As to `CC(C)=CCC/C(C)=C/C[C@@H]1C[C@@]2(CC=C(C)C)C(=O)CC(=O)[C@](CC=C(C)C)(C2=O)C1(C)C`, the IC50 was found to be 9.14 µg/mL (≈ 19.6 µM) in the assay on HCT-116, 9.69 µg/mL (≈ 20.8 µM) with HeLa and 6.89 µg/mL (≈ 14.8 µM) in the assay on SGC-7901.
On to `CC(C)=CC[C@@H]1C[C@@]2(CC=C(C)C)C(=O)[C@](C)(C(=O)C(C(=O)c3ccccc3)=C2O)C1(C)C`, for which the MIC against Staphylococcus aureus [1] is > 30 µg/mL.
In the case of `C=C(C)[C@H](CC=C(C)C)C[C@]12C[C@H](CC=C(C)C)C(C)(C)[C@](CC=C(C)C)(C(=O)C(C(=O)c3ccc(O)c(O)c3)=C1O)C2=O`, 7 µg/mL (≈ 11.6 µM) was the least that counted as inhibitory against Staphylococcus aureus [1] (MIC).
On the same count and under the same terms, in the case of `CC(C)=CC[C@@]12C[C@@H](Cc3ccccc3)C(C)(C)[C@@](CC=C(C)C)(C(=O)C(C(=O)c3ccccc3)=C1O)C2=O` it was 4 µg/mL (≈ 7.62 µM).
For `CC(C)=CCC/C(C)=C/C[C@]12C[C@@H](CC=C(C)C)C(C)(C)[C@](C/C=C(\C)CCC=C(C)C)(C(=O)C(C(=O)c3ccc(O)c(O)c3)=C1O)C2=O` [GUTTIFERONE O], the half-maximal inhibitory concentration (IC50) in the assay on HCT-116, in the assay on HeLa and with SGC-7901 was > 20 µg/mL throughout.
With `CC(C)=CC[C@@H]1C[C@@]2(CC=C(C)C)C(=O)[C@](CC=C(C)C)(C(=O)C(C(=O)c3ccccc3)=C2O)C1(C)C` [CLUSIANONE], the MIC in the assay with Staphylococcus aureus [1] worked out at 1 µg/mL (≈ 1.99 µM).
Take `CC(C)=CCC1=C(O)[C@@]2(C(=O)c3ccccc3)C(=O)[C@](CC=C(C)C)(C[C@H](CC=C(C)C)C2(C)C)C1=O`: the IC50 in the assay with Plasmodium falciparum and with Staphylococcus aureus [2] was < 1000 nM in each case.
`C=CC[C@@]12C[C@@H](CC=C(C)C)C(C)(C)[C@@](CC=C)(C(=O)C(C(C)=O)=C1O)C2=O` registered an MIC against Staphylococcus aureus [1] of 2 µg/mL (≈ 5.2 µM).
With `CC(C)=CCC/C(C)=C/C[C@]12C[C@@H](CC=C(C)C)C(C)(C)[C@](CC=C(C)C)(C(=O)C(C(=O)c3ccc(O)c(O)c3)=C1O)C2=O`, the IC50 in the assay with HCT-116 is 8.6 µg/mL (≈ 14.3 µM); in the assay on HeLa it was 11.7 µg/mL (≈ 19.4 µM); in the assay on SGC-7901 it was 5.48 µg/mL (≈ 9.09 µM).
Consider `C=CC[C@@]12C(=O)C(C(=O)C(C)C)=C(O)[C@@](Cc3ccccc3)(C[C@@H](CC=C(C)C)C1(C)C)C2=O`, for which 1 µg/mL (≈ 2.16 µM) was the least that counted as inhibitory with Staphylococcus aureus [1] (MIC).
In the assay with Staphylococcus aureus [1], `C=CC[C@@]12C(=O)C(C(=O)c3ccccc3)=C(O)[C@@](Cc3ccccc3)(C[C@@H](CC=C(C)C)C1(C)C)C2=O` had an MIC of 4 µg/mL (≈ 8.05 µM).
For `CC(C)=CCC/C(C)=C/C[C@]12C(=O)CC(=O)[C@](CC=C(C)C)(C[C@@H](CC=C(C)C)C1(C)C)C2=O`, the concentration for half-maximal inhibition (IC50) in the assay on HCT-116 worked out at 10.9 µg/mL (≈ 23.4 µM); in the assay on HeLa, 11.7 µg/mL (≈ 25 µM); with SGC-7901 it was 8.5 µg/mL (≈ 18.2 µM).
In the same order, the values of `CC(C)=CCC/C(C)=C/C[C@@H]1C[C@@]2(C/C=C(\C)CCC=C(C)C)C(=O)CC(=O)[C@](CC=C(C)C)(C2=O)C1(C)C` are > 20 µg/mL, > 20 µg/mL and > 20 µg/mL.
Consider `CC(=O)C1=C(O)[C@@]2(Cc3ccccc3)C[C@@H](CC=C(C)C)C(C)(C)[C@@](CC=C(C)C)(C1=O)C2=O`, for which, in the assay on Staphylococcus aureus [1], the MIC was 0.5 µg/mL (≈ 1.08 µM).
For `CC(C)=CCC/C(C)=C/C[C@@H]1C[C@]2(CC=C(C)C)C(=O)[C@@](CC=C(C)C)(C(=O)C(C(=O)c3ccc(O)c(O)c3)=C2O)C1(C)C` [OBLONGIFOLIN B], the IC50 with HCT-116, in the assay on HeLa and with SGC-7901 was > 20 µg/mL in each case.
Turning to `CC(C)=CC[C@@H]1C[C@]23C[C@@H](CC=C(C)C)C(C)(C)[C@](CC=C(C)C)(C(=O)C(C(=O)c4ccc(O)c(O)c4)=C2OC1(C)C)C3=O`, the MIC in the assay on Staphylococcus aureus [1] was > 30 µg/mL.
For the compound `CC1(C)[C@H](Cc2ccccc2)C[C@@]2(Cc3ccccc3)C(=O)[C@]1(C)C(=O)C(C(=O)c1ccccc1)=C2O`, in the assay with Staphylococcus aureus [1], the minimal inhibitory concentration (MIC) was > 30 µg/mL.
Regarding `CC(C)=CC[C@H]1C[C@@]2(CC=C(C)C)C(=O)c3c(oc4cc(O)c(O)cc4c3=O)[C@](CC=C(C)C)(C2=O)C1(C)C`, the IC50 came to 5.96 µg/mL (≈ 11.2 µM) in the assay on HCT-116, 7.65 µg/mL (≈ 14.4 µM) in the assay with HeLa and 7.65 µg/mL (≈ 14.4 µM) in the assay on SGC-7901.
For `CC(C)=CC[C@@H]1C[C@@]2(CC=C(C)C)C(=O)[C@](CC=C(C)C)(C(=O)C(C(=O)C(C)C)=C2O)C1(C)C`, the minimal inhibitory concentration (MIC) in the assay on Staphylococcus aureus [1] stood at 2 µg/mL (≈ 4.27 µM).
Turning to `CC(C)=CCC/C(C)=C/C[C@]12C[C@@H](CC=C(C)C)C(C)(C)[C@](C/C=C(\C)CCC=C(C)C)(C(=O)CC1=O)C2=O`, the IC50 in the assay with HCT-116, in the assay with HeLa and in the assay with SGC-7901 was > 20 µg/mL in each case.
Regarding `C=CC[C@@]12C(=O)C(C(C)=O)=C(O)[C@@](Cc3ccccc3)(C[C@@H](CC=C(C)C)C1(C)C)C2=O`, in the assay with Staphylococcus aureus [1], the MIC amounted to 1 µg/mL (≈ 2.3 µM).
On the same count and under the same terms, in the case of `CC(C)=CC[C@@H]1C[C@@]2(Cc3ccccc3)C(=O)[C@](CC=C(C)C)(C(=O)C(C(=O)c3ccccc3)=C2O)C1(C)C` it was 1 µg/mL (≈ 1.91 µM); in that of `CC(C)=CC[C@@]12C[C@@H](Cc3ccccc3)C(C)(C)[C@@](C)(C(=O)C(C(=O)c3ccccc3)=C1O)C2=O`, > 30 µg/mL.
Same read-out and setting: in the case of `CC(C)=CC[C@@H]1C[C@]2(CC=C(C)C)C(=O)C(C(=O)c3ccccc3)=C3O[C@H](C(C)(C)O)C[C@]3(C2=O)C1(C)C` it was 4 µg/mL (≈ 7.71 µM).
Consider `CC(C)=CCC/C(C)=C/C[C@]12C[C@@H](CC=C(C)C)C(C)(C)[C@](CC=C(C)C)(C(=O)CC1=O)C2=O`, for which the IC50 in the assay with HCT-116 was found to be 6.46 µg/mL (≈ 13.8 µM); in the assay on HeLa, 6.64 µg/mL (≈ 14.2 µM); in the assay with SGC-7901, 5.6 µg/mL (≈ 12 µM).
